Data on two molecules can be found in patent US20130317046A1, “USE OF A DPP-4 INHIBITOR IN AUTOIMMUNE DIABETES, PARTICULARLY LADA” (BOEHRINGER INGELHEIM INTERNATIONAL GMBH, priority 2012, published 2013).

Data set [1] in a line: HbA1c in GAD65+ LADA patients, two year double-blind randomized study linagliptin versus glimepiride on metformin. As to conditions: GAD+ patients. Format: in vivo, human. The protocol: (§1) β-Cell function in latent autoimmune diabetes in adults (LADA) treated with linagliptin versus glimepiride: exploratory results from a two year double-blind, randomized, controlled study:
(§2) It is compared the impact of treatment with the DPP4-inhibitor linagliptin (lina) 5 mg/d and the sulphonylurea glimepiride (glim) 1-4 mg/d on β-cell function in patients retrospectively identified with LADA who had insufficient glycaemic control despite metformin therapy in a two year study.
(§3) Patients were classified as LADA if one or more of the autoantibodies assessed (GAD65, ICA, IA-2A, IAA) were present at baseline or any on-treatment visit. GAD was assessed using RIA methodology (cut-off 0.05 [sensitivity 82%/specificity 98.89% in the Diabetes Autoantibody Standardization Program 2010]).
(§4) The study cohort comprised 1519 patients (16 countries), with assumed common T2D. The prevalence of LADA was 7.8% (n=118). GAD65 was the most prevalent autoantibody (6.5%) whereas ICA (0.3%), IA-2A (1.2%) and IAA (0.2%) were rare. Proportion of patients with 2 positive antibodies was 0.4%. Baseline characteristics in GAD65+LADA patients treated with lina (n=65) or glim (n=53) were fairly well balanced (respective age 59/63 yrs, BMI 30.3/31.7 kg/m2 and diabetes duration >5 years 62%/59%).
(§5) HbA1c reductions were of similar magnitude in the groups.

Another data set relates to β-cell function. Nature of the data set: Fasting C-peptide (β-cell function) in GAD65+ LADA patients, two year double-blind randomized study linagliptin versus glimepiride on metformin. It counts as in vivo, human. Also on record: Follow-up C-peptide / ΔC-peptide / Baseline C-peptide: unit not given here. As to conditions: for Follow-up C-peptide / ΔC-peptide / Baseline C-peptide: fasting, GAD+ patients; for Follow-up C-peptide: 52 weeks; for Follow-up C-peptide / Baseline C-peptide: lina 5 mg/d, glim 1-4 mg/d, on metformin. The protocol: as §1, §2, §3, §4, §5

Data set [2] can be described thus: 2 h postprandial blood glucose excursions in patients with type 2 diabetes. It counts as in vivo, human. As to conditions: Day 1, doses ≧2.5 mg.
The nature of data set [3]: Pharmacokinetics of BI 1356 after multiple oral doses once daily for 12 days in patients with type 2 diabetes. As to conditions: for feT,ss: steady state (Day 12); for feT,ss / fe0-24: gMean; for fe0-24: fraction excreted in urine.
The nature of data set [4]: Safety and tolerability in people with type 2 diabetes.
Setting [5] is: change from baseline at 28 weeks.
The mark [6] stands for this setting: change from baseline at 52 weeks.
Setting [7] is: change from baseline at 104 weeks.

Marks after values point to notes of the source that are not given here.

For the molecule `CCC1=C(C)CN(C(=O)NCCc2ccc(S(=O)(=O)NC(=O)N[C@H]3CC[C@H](C)CC3)cc2)C1=O` [Glim, glimepiride, reference compound], the values for the ΔHbA1c in data set [1] (setting [5]), in data set [1] (setting [6]) and in data set [1] (setting [7]) were −0.75%, −0.52% and −0.49%, respectively. The “Baseline HbA1c” value turned out to be 7.75% in data set [1] (subset followed to 28 weeks), 7.46% in data set [1] (subset followed to 52 weeks) and 7.40% in data set [1] (subset followed to 104 weeks). Also, in the data set on β-cell function, the “Follow-up C-peptide” value is recorded as 1246. The values for the ΔC-peptide with β-cell function (setting [5]), in the data set on β-cell function (setting [6]) and with β-cell function (setting [7]) were −105, −179 and −29, respectively. The entries for the “Baseline C-peptide” value with β-cell function (subset followed to 28 weeks), in the data set with β-cell function (subset followed to 52 weeks) and in the data set on β-cell function (subset followed to 104 weeks) were 1326, 1425 and 1374, respectively.
Consider `CC#CCn1c(N2CCC[C@@H](N)C2)nc2c1c(=O)n(Cc1nc(C)c3ccccc3n1)c(=O)n2C` [BI 1356, 1-[(4-methyl-quinazolin-2-yl)methyl]-3-methyl-7-(2-butyn-1-yl)-8-(3-(R)-amino-piperidin-1-yl)-xanthine], for which the “decrease in 2 h postprandial blood glucose excursions” value in data set [2] was 80%. For the same molecule, the ΔHbA1c is on record as −0.25% in data set [1] (setting [5]), −0.49% in data set [1] (setting [6]) and −0.41% in data set [1] (setting [7]). Also, the “Baseline HbA1c” value is recorded as 7.62% in data set [1] (subset followed to 28 weeks), 7.50% in data set [1] (subset followed to 52 weeks) and 7.40% in data set [1] (subset followed to 104 weeks). The “preservation of C-peptide” value in the data set with β-cell function (GAD65+ patients, over a 2 yr trajectory, versus glim) is reported as “preserved C-peptide significantly better than those treated with glim”. Besides, the “Follow-up C-peptide” value in the data set on β-cell function amounted to 978. Also, the ΔC-peptide entry is “+96***##” with β-cell function (setting [5]), “+143***##” in the data set on β-cell function (setting [6]) and “+202***” with β-cell function (setting [7]). The “Baseline C-peptide” value in the data set on β-cell function (subset followed to 28 weeks) was found to be 821; in the data set on β-cell function (subset followed to 52 weeks), 835; in the data set on β-cell function (subset followed to 104 weeks) it was 944. Further, the “feT,ss” value in data set [3] (1 mg oral once daily) stood at 3.34%; in data set [3] (2.5 mg oral once daily), 3.06%; in data set [3] (5 mg oral once daily) it was 6.27%; in data set [3] (10 mg oral once daily) it was 3.22%. Also, the fe0-24 in data set [3] (2.5 mg oral once daily) is reported as 0.139%; in data set [3] (5 mg oral once daily), 0.453%; in data set [3] (10 mg oral once daily), 0.919%. The “mean accumulation ratio RA,AUC” value in data set [3] (doses above 1 mg) was at most 1.4. Further, the “form and route of excretion” value in data set [3] (human, in vivo) is recorded as “primarily excreted unchanged via the bile”. In addition, the “excreted via the kidney” value in data set [3] (therapeutic oral dose levels) is recorded as < 7 % of the administered oral dose. Besides, the “main route of excretion” value in data set [3] (therapeutic oral dose levels) is recorded as “mainly excreted via the liver”. In addition, in data set [4], the safety and tolerability result was “placebo-like safety and tolerability”.
